Laboratory results published in ChEMBL document CHEMBL1770082, “Probing the isoprenylcysteine carboxyl methyltransferase (Icmt) binding pocket: sulfonamide modified farnesyl cysteine (SMFC) analogs as Icmt inhibitors” (Bioorg Med Chem Lett, 2011).

target: T1, Protein-S-isoprenylcysteine O-methyltransferase (Homo sapiens, UniProt O60725); assay: Inhibition of human ICMT at 10uM incubated with N-Acetyl-S-farnesyl-L-cysteine substrate for 5 mins followed by addition of [14C]-SAM measured after 30 mins by liquid scintillation counting; details: not given
T1 sequence (O60725 whole entry): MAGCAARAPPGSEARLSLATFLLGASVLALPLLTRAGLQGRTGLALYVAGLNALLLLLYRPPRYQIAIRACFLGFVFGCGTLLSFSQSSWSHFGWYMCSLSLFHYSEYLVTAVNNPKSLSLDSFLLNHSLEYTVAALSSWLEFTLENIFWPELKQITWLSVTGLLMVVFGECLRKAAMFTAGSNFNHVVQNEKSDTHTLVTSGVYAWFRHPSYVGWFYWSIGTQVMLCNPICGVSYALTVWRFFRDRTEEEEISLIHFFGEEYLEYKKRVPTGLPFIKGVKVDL

SMILES	inhibition
COC(=O)[C@H](CSC/C=C(\C)CC/C=C(\C)CCC=C(C)C)NS(=O)(=O)c1cccs1	10%

target: T1, Protein-S-isoprenylcysteine O-methyltransferase; assay: Inhibition of human ICMT incubated with N-Acetyl-S-farnesyl-L-cysteine substrate for 5 mins followed by addition of [14C]-SAM measured after 30 mins by liquid scintillation counting; details: not given

SMILES	IC50
CC(C)=CCC/C(C)=C/CC/C(C)=C/CSC[C@H](NS(=O)(=O)c1ccccc1Oc1ccccc1)C(=O)O	18.4 µM
CC(C)=CCC/C(C)=C/CC/C(C)=C/CSC[C@H](NS(=O)(=O)c1ccccc1)C(=O)O	17 µM
CC(C)=CCC/C(C)=C/CC/C(C)=C/CSC[C@H](NS(=O)(=O)c1cccs1)C(=O)O	8.8 µM
CC(C)=CCC/C(C)=C/CC/C(C)=C/CSC[C@H](NS(=O)(=O)c1ccc(F)cc1)C(=O)O	15.5 µM
CC(C)=CCC/C(C)=C/CC/C(C)=C/CSC[C@H](NS(=O)(=O)c1cccc2c(N(C)C)cccc12)C(=O)O	11.6 µM
CC(C)=CCC/C(C)=C/CC/C(C)=C/CSC[C@H](NS(=O)(=O)c1cccc([N+](=O)[O-])c1)C(=O)O	13.4 µM

target: T1, Protein-S-isoprenylcysteine O-methyltransferase; details: at 10 µM
Description: Inhibition of human ICMT at 10 uM incubated with N-Acetyl-S-farnesyl-L-cysteine substrate for 5 mins followed by addition of [14C]-SAM measured after 30 mins by liquid scintillation counting

SMILES	inhibition
COc1ccc(S(=O)(=O)N[C@@H](CSC/C=C(\C)CC/C=C(\C)CCC=C(C)C)C(=O)O)cc1OC	> 55%
COc1ccc(S(=O)(=O)N[C@@H](CSC/C=C(\C)CC/C=C(\C)CCC=C(C)C)C(=O)O)c([N+](=O)[O-])c1	< 45%
CC(C)=CCC/C(C)=C/CC/C(C)=C/CSC[C@H](NS(=O)(=O)c1ccccc1Oc1ccccc1)C(=O)O	55%
CC(C)=CCC/C(C)=C/CC/C(C)=C/CSC[C@H](NS(=O)(=O)c1ccc(C(C)(C)C)cc1)C(=O)O	45%
CC(C)=CCC/C(C)=C/CC/C(C)=C/CSC[C@H](NS(=O)(=O)c1cccc2cccnc12)C(=O)O	45%
CC(C)=CCC/C(C)=C/CC/C(C)=C/CSC[C@H](NS(=O)(=O)c1ccc([N+](=O)[O-])cc1)C(=O)O	> 55%
CC(C)=CCC/C(C)=C/CC/C(C)=C/CSC[C@H](NS(=O)(=O)c1ccccc1)C(=O)O	45%
CC(C)=CCC/C(C)=C/CSC[C@H](NS(=O)(=O)c1ccccc1)C(=O)O	22%
CC(C)=CCC/C(C)=C/CC/C(C)=C/CSC[C@H](NS(=O)(=O)c1ccc(C(C)C)cc1)C(=O)O	< 45%
CC(C)=CCC/C(C)=C/CC/C(C)=C/CSC[C@H](NS(=O)(=O)c1c(C)c(C)c(C)c(C)c1C)C(=O)O	< 45%
CC(C)=CCC/C(C)=C/CSC[C@H](NS(=O)(=O)c1ccc(F)cc1)C(=O)O	23%
C=Cc1ccc(S(=O)(=O)N[C@@H](CSC/C=C(\C)CC/C=C(\C)CCC=C(C)C)C(=O)O)cc1	< 45%
CC(C)=CCC/C(C)=C/CC/C(C)=C/CSC[C@H](NS(=O)(=O)c1ccc(Cl)cc1F)C(=O)O	< 45%
CC(C)=CCC/C(C)=C/CC/C(C)=C/CSC[C@H](NS(=O)(=O)c1c(C(C)C)cc(C(C)C)cc1C(C)C)C(=O)O	< 45%
CC(C)=CCC/C(C)=C/CC/C(C)=C/CSC[C@H](NS(=O)(=O)c1ccccc1C(F)(F)F)C(=O)O	< 45%
CC(C)=CCC/C(C)=C/CC/C(C)=C/CSC[C@H](NS(=O)(=O)c1ccc(-c2ccccc2)cc1)C(=O)O	< 45%
CCCCCCSC[C@H](NS(=O)(=O)c1cccc([N+](=O)[O-])c1)C(=O)O	17%
CC(C)=CCC/C(C)=C/CC/C(C)=C/CSC[C@H](NS(=O)(=O)c1ccc(C)cc1)C(=O)O	< 45%
CC(C)=CCC/C(C)=C/CC/C(C)=C/CSC[C@H](NS(=O)(=O)c1c(F)c(F)c(F)c(F)c1F)C(=O)O	< 45%
CC(C)=CCC/C(C)=C/CC/C(C)=C/CSC[C@H](NS(=O)(=O)c1ccc(F)cc1F)C(=O)O	45%

SMILES	inhibition
CC(C)=CCC/C(C)=C/CC/C(C)=C/CSC[C@H](NS(=O)(=O)c1cccs1)C(=O)O	> 55%
COc1ccc(S(=O)(=O)N[C@@H](CSC/C=C(\C)CC/C=C(\C)CCC=C(C)C)C(=O)O)cc1	< 45%
CC(C)=CCC/C(C)=C/CC/C(C)=C/CSC[C@H](NS(=O)(=O)c1ccc(F)cc1)C(=O)O	> 55%
CC(C)=CCC/C(C)=C/CC/C(C)=C/CSC[C@H](NS(=O)(=O)c1ccc(Cl)cc1)C(=O)O	45%
COc1ccc(S(=O)(=O)N[C@@H](CSC/C=C(\C)CC/C=C(\C)CCC=C(C)C)C(=O)O)c(OC)c1	45%
CC(C)=CCC/C(C)=C/CC/C(C)=C/CSC[C@H](NS(=O)(=O)c1ccc(Br)s1)C(=O)O	< 45%
CCCCCCCCCCCSC[C@H](NS(=O)(=O)c1cccc([N+](=O)[O-])c1)C(=O)O	32%
CC(C)=CCC/C(C)=C/CC/C(C)=C/CSC[C@H](NS(=O)(=O)c1ccccc1[N+](=O)[O-])C(=O)O	45%
CC(C)=CCC/C(C)=C/CC/C(C)=C/CSC[C@H](NS(=O)(=O)c1cccc2c(N(C)C)cccc12)C(=O)O	45%
CC(C)=CCC/C(C)=C/CSC[C@H](NS(=O)(=O)c1cccc([N+](=O)[O-])c1)C(=O)O	18%
CCCCCCCCS(=O)(=O)N[C@@H](CSC/C=C(\C)CC/C=C(\C)CCC=C(C)C)C(=O)O	< 45%
CC(C)=CCC/C(C)=C/CC/C(C)=C/CSC[C@H](NS(=O)(=O)C[C@@]12CC[C@H](CC1=O)C2(C)C)C(=O)O	45%
CCCc1ccc(S(=O)(=O)N[C@@H](CSC/C=C(\C)CC/C=C(\C)CCC=C(C)C)C(=O)O)cc1	< 45%
CC(C)=CCC/C(C)=C/CC/C(C)=C/CSC[C@H](NS(=O)(=O)c1cccc([N+](=O)[O-])c1)C(=O)O	> 55%
CC(C)=CCC/C(C)=C/CC/C(C)=C/CSC[C@H](NS(=O)(=O)c1ccccc1Br)C(=O)O	< 45%
CC(C)=CCC/C(C)=C/CC/C(C)=C/CSC[C@H](NS(=O)(=O)Cc1ccccc1)C(=O)O	< 45%
CC(C)=CCC/C(C)=C/CC/C(C)=C/CSC[C@H](NS(=O)(=O)c1ccc2ccccc2c1)C(=O)O	45%
CC(=O)c1ccc(S(=O)(=O)N[C@@H](CSC/C=C(\C)CC/C=C(\C)CCC=C(C)C)C(=O)O)cc1	45%
CC(=O)Nc1ccc(S(=O)(=O)N[C@@H](CSC/C=C(\C)CC/C=C(\C)CCC=C(C)C)C(=O)O)cc1	< 45%
